Where two headings read alike, the source gives them in different places.
Legend:
[1] = cited from earlier work
protein carbonylation = assay: Protein carbonylation assay, SNP-induced, brain homogenate; format: biochemical, mouse
Experimental: (§1) Brains from mice of both sexes were used for in vitro assays, each performed in duplicate across three independent experiments (n = 3), conducted on different days.
The evaluation of protein carbonylation was performed according to a previously established protocol, using freshly prepared brain homogenate diluted at a 1:8 ratio in Tris-HCl buffer. Test compounds (10 μL), ranging in concentrations from 25 to 200 μM, were individually introduced into separate test tubes. Trolox (100 μM) served as the standard antioxidant. The diluted brain homogenate (940 μL) was then added to all tubes, followed by SNP (1 mM) as the inducing oxidative agent (50 μL). The tubes were promptly incubated at 37 °C for 2 h. Following incubation, 2 M HCl was added to blank tubes (200 μL), while 10 mM 2,4-dinitrophenyl-hydrazine (DNPH) solution was added to test tubes (200 μL). The mixture was incubated for 1 h in darkness at room temperature, with intermittent stirring every 15 min to facilitate the color reaction. Subsequently, 500 μL of denaturation buffer, 1.5 mL of ethanol, and 1.5 mL of hexane were added to all tubes, which were then vigorously shaken for 40 s. The tubes were then centrifuged at 900g for 15 min, and the supernatant was carefully decanted. The resulting pellet was washed twice with 1 mL of ethanol/ethyl acetate solution (1:1). After allowing the pellet to dry air for 2 min, it was resuspended in 1 mL of denaturation buffer and subjected to spectrophotometric analysis at 370 nm. The findings were quantified as nmol carbonyl per gram of tissue.

MAO-A = biological target: T1, MAO-A (Mus musculus, UniProt Q64133); assay: Cerebral MAO-A activity, mitochondria-enriched mouse brain fraction (kynuramine, fluorimetric); format: biochemical
T1 construct: Mitochondria-enriched brain preparations were obtained in accordance with established methodology outlined in literature; from tissue; host or cells: mouse brain, mitochondria-enriched fraction
T1 sequence (Q64133 1-526): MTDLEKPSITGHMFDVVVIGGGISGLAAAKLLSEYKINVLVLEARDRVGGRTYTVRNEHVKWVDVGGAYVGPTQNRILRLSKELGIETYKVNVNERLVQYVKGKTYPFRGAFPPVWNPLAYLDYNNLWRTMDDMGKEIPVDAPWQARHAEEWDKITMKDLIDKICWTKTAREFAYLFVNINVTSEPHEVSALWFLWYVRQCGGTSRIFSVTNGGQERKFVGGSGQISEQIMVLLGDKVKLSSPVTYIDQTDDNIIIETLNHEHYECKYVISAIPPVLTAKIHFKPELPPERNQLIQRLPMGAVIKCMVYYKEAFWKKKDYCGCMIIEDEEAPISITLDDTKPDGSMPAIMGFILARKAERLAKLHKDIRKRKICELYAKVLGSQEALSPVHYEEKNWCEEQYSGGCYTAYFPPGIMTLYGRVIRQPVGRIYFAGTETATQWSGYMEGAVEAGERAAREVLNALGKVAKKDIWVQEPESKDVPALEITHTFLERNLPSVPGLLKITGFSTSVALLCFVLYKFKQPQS
Experimental: (§2) Mitochondria-enriched brain preparations were obtained in accordance with established methodology outlined in literature. The homogenate was prepared using the mouse brain tissue and a homogenization buffer (Na2PO4/KH2PO4/sucrose) at a ratio of 1:4 (w/v). The homogenate was centrifuged at 900g at 4 °C for 5 min. The resulting supernatant was separated and subjected to centrifugation at 12,500g for 15 min. The resulting pellet was resuspended in the homogenization buffer and subjected to a further round of centrifugation under identical conditions. Finally, the mitochondrial pellet obtained was reconstituted in an assay buffer solution (Na2PO4/KH2PO4/KCl). Protein concentration was estimated using the Bradford method and standardized as 1 mg/mL for the experiments.
(§3) MAO activity was assessed following the method outlined by Krajl, with some modifications by Matsumoto. Briefly, a 100 μL aliquot of the mitochondria-rich fraction was incubated at 37 °C for 5 min with specific MAO inhibitors: clorgyline (250 nM, a MAO-A inhibitor), or pargyline (250 nM, a MAO-B inhibitor). Then, 10 μL of each compound was introduced at varying concentrations (25–200 μM). Water (10 μL) was used in the control tubes. Afterward, the substrate, 20 μL of kynuramine dihydrobromide, was added to achieve a final concentration of 90 μM for MAO-A and 60 μM for MAO-B. The samples were incubated at 37 °C for 30 min. The reaction was halted by the addition of 300 μL of 10% trichloroacetic acid (TCA). After centrifuging at 16,000g for 15 min, an aliquot of 800 μL of the supernatant was mixed with 1 mL of 1 M sodium hydroxide (NaOH). The samples were measured using a fluorimeter with excitation at 315 nm and emission at 380 nm.

female Swiss mice = test system: female Swiss mice; set-up: method as in previously conducted by our research group; conditions: same methodology layout; ref previously conducted by our research group; cited from earlier work
[2] = test system: cerebral lipid peroxidation; assay: TBARS assay, SNP-induced lipid peroxidation in brain homogenate; format: biochemical, mouse; conditions: for Concentrations effective in reversing SNP-induced oxidative damage (TBARS): tested up to 500 μM
Experimental: as §1
The brain tissues were homogenized in a 50 mM Tris-HCl buffer at pH 7.4, using a 1:10 ratio (w/v). The freshly prepared homogenate was then centrifuged at 900g for 10 min, yielding a low-speed supernatant (S1). Lipid peroxidation was evaluated using the TBARS method as previously described. Lipid peroxidation was induced by 0.3 mM SNP. A 100 μL aliquot of S1 was incubated for 1 h at 37 °C in the presence of the compounds 3A, 3B, and 3C at concentrations ranging from 25 to 500 μM, and SNP or water (to control). The color reaction was initiated by adding 500 μL of a 0.8% thiobarbituric acid (TBA) solution, followed by 200 μL of 8.1% sodium dodecyl sulfate (SDS) and 500 μL of acetic acid (pH 3.4). The reaction mixture was incubated at 95 °C for 1 h. The absorbance was measured using a spectrophotometer at a wavelength of 532 nm. Trolox (100 μM), an antioxidant analogous to vitamin E, served as a positive control. The results were reported as nmol TBARS per gram of tissue. A parallel TBARS experiment was also conducted using a standard alkyl aryl selenide (2-((phenylselanyl)-methyl)-pyridine), dissolved in DMSO at the same concentrations tested, ranging from 25 to 500 μM.

MAO-B = biological target: T2, MAO-B (Mus musculus, UniProt Q8BW75); assay: Cerebral MAO-B activity, mitochondria-enriched mouse brain fraction (kynuramine, fluorimetric); format: biochemical
T2 construct: Mitochondria-enriched brain preparations were obtained in accordance with established methodology outlined in literature; from tissue; host or cells: mouse brain, mitochondria-enriched fraction
T2 sequence (Q8BW75 1-520): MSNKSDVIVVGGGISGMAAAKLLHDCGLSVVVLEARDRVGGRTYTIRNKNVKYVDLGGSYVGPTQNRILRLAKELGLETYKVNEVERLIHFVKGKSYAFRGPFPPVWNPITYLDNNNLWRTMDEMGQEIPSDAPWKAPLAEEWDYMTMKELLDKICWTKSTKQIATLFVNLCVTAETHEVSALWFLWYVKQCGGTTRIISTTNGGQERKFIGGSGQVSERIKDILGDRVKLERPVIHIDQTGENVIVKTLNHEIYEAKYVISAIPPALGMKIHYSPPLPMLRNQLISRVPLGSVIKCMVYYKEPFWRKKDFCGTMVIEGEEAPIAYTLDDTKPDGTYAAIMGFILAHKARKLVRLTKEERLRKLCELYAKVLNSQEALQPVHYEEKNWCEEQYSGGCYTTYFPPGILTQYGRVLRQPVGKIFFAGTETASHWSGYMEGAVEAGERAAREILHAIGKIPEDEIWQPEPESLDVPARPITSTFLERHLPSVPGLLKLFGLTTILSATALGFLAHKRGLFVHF
Experimental: as §2, §3

[3] = set-up: method as in Prigol and colleagues; conditions: 500 mg/kg dissolved in oil, per oral; ref Prigol and colleagues; cited from earlier work
[4] = set-up: method as in Prigol and colleagues; conditions: ref Prigol and colleagues; cited from earlier work
male Swiss mice [5] = assay: Open field test (OFT) before the TST; format: in vivo, mouse; conditions: 3B 0.5–5 mg/kg i.g.; fluoxetine 20 mg/kg i.p.
Experimental: (§4) A dosage of 5 mg/kg (intragastric route, i.g., by gavage) was administered to all groups receiving the salts. […] The TST was conducted 30 min following drug administration, with the OFT being performed 4 min prior to the TST.
(§5) Following the selection of the most promising salt during screening (Compound 3B), an analysis of the compound’s time-response curve was conducted in the mouse TST. For this purpose, the animals were divided into five groups: (I) control (water; i.g.), (II) the group receiving compound 3B 15 min prior to TST, (III) the group receiving compound 3B 30 min before TST, (IV) the group receiving compound 3B 60 min before TST, and (V) the group receiving compound 3B 120 min before TST. The dosage of salt was standardized at 5 mg/kg (i.g). OFT was conducted 4 min prior to the TST.
(§6) After choosing a suitable preadministration time, the dose–response curve of the compound at this fixed time was analyzed. The animals were categorized into […]: I) a control group (administered water; i.g.) and groups II, III, IV and V) receiving compound 3B at doses of 0.5 mg/kg, 1 mg/kg, 2.5 mg/kg, and 5 mg/kg (i.g.), respectively. […] Thirty minutes postadministration, the animals underwent the TST. Four minutes prior to the TST, they underwent the OFT.
The aim of this behavioral test is to assess the locomotion and exploration behavior of the animals using an open field apparatus measuring 30 cm × 30 cm × 15 cm, constructed from plywood with a floor divided into nine quadrants, facilitating free movement for the animals. During the OFT, the animals were positioned in the center of the apparatus and subjected to a 5 min testing period, following the protocol outlined in literature. The number of quadrant crossings and rearings was recorded and quantified during testing phase.

male Swiss mice [6] = assay: Tail suspension test (TST); format: in vivo, mouse
Experimental: A behavioral screening was conducted using the three salts to determine their potential antidepressant-like actions (n = 7–9 mice/group).
as §4, §5, §6
This test aims to assess depressive-like behavior and antidepressant-like action of therapies by measuring immobility. […] The test was conducted using a mouse suspension box made of wood, measuring 50 cm × 21 cm × 21 cm, designed to prevent any visual or physical interaction among the animals. A suspension bar was positioned atop the box, and the mouse’s tail was affixed to the bar using adhesive tape. The test duration was 6 min, during which the animal’s latency to the first immobility episode and the total duration of immobility (sec) were assessed.

rodent = conditions: literature value, cited from earlier work
[7] = salts 5 mg/kg i.g., fluoxetine 20 mg/kg i.p., 30 min before test

Compound: c1ccc([Se]c2c(-c3ccccc3)cn3ccccc23)cc1 [2-phenyl-1-(phenylselanyl)indolizine]
- Effective dose (previously studied related molecule) [1]: ≥ 10 mg/kg

Compound: O=C(C[n+]1ccccc1C[Se]c1ccccc1)c1ccc(Cl)cc1.[Br-] [Compound 3C, 1-(2-(4-chlorophenyl)-2-oxoethyl)-2-((phenylselanyl)methyl)pyridin-1-ium bromide]
- IC50 (protein carbonylation; mouse brain homogenate, SNP-induced, 25–200 μM): 111 µM
- IC50 (MAO-A): 77.6 µM
- Concentrations with significant inhibition of MAO-A activity (MAO-A; tested 25–200 μM, Dunnett vs control): ≥ 50 µM
- Signs of toxicity in acute oral toxicity study (female Swiss mice): no signs of toxicity
- IC50 ([2]; mouse brain homogenate, SNP-induced): 102 µM
- Concentrations effective in reversing SNP-induced oxidative damage (TBARS) ([2]; mouse brain homogenate): 50 to 500 µM
- IC50 (MAO-B): 125 µM

Compound: c1ccc([Se][Se]c2ccccc2)cc1 [(PhSe)2, diphenyl diselenide]
- Selenium levels in plasma [3]: very low levels of selenium in plasma
- Solubility in isotonic phosphate buffer [4]: poor solubility in isotonic phosphate buffer

Compound: CNCCC(Oc1ccc(C(F)(F)F)cc1)c1ccccc1 (stereo not drawn) [Fluoxetine, reference compound]
- OFT number of rearings, dose–response experiment (male Swiss mice [5]): decreased rearings
- TST immobility time, positive control in dose–response experiment (male Swiss mice [6]; 20 mg/kg i.p., 30 min): effectively reduced the immobility time
- TST latency time, positive control in dose–response experiment (male Swiss mice [6]; 20 mg/kg i.p., 30 min): as also observed in the fluoxetine group
- TST latency time to first immobility episode, screening (male Swiss mice [6]; [7]): significantly increased latency time
- TST total immobility time, screening (male Swiss mice [6]; [7]): shorter total immobility times
- Reduction in rodent locomotor activity (rodent; 30 mg/kg): 89%

Compound: Cc1c(C)c2c(c(C)c1O)CCC(C)(C(=O)O)O2 (stereo not drawn) [Trolox, reference compound]
- Effect of positive control on protein carbonylation (protein carbonylation; 100 μM): effective
- Effect of positive control on SNP-induced TBARS ([2]; 100 μM): effectively reversed oxidative damage

Compound: c1ccc([Se]Cc2ccccn2)cc1 [2-((phenylselanyl)methyl)pyridine, reference compound]
- Concentrations effective in reversing SNP-induced oxidative damage (TBARS) ([2]; mouse brain homogenate): 500 µM

Compound: COc1ccc(C(CN(C)C)C2(O)CCCCC2)cc1 (stereo not drawn) [venlafaxine]
- Reduction in rodent locomotor activity (rodent; 50 mg/kg): 62%

Compound: CN(C)CC/C=C1\c2ccccc2CSc2ccccc21 [dothiepin]
- Reduction in rodent locomotor activity (rodent; 10 mg/kg): 73%

From publication PMC12498411, “Antidepressant-like Properties of a Selenium-Containing Pyridinium Salt Explored through In Vitro, In Vivo, and In Silico Approaches” (ACS Chemical Neuroscience, 2025)
